Measurements reported in US20220259593A1, “CONTROL OF MAMMALIAN GENE DOSAGE USING CRISPR” (The Regents of the University of California, priority 2019, published 2022).

System: K562 CRISPRi cells
Experiment: Perturb-seq pooled growth measurement (sgRNA counts, growth phenotype γ, relative activity)
Assay type: cell-based, human
Conditions: sequencing read counts; for Perturb-seq pooled growth sgRNA counts, d5: 5 days of growth (day seven after transduction); for Perturb-seq pooled growth sgRNA counts, d10: 10 days of growth (day twelve after transduction); for Perturb-seq pooled growth sgRNA counts, T0: T0 = day two after transduction
Text: Finally, we sought to use intermediate-activity sgRNAs to explore relationships between expression levels of various genes and the resulting cellular phenotypes. To simultaneously measure gene expression levels and obtain rich phenotypes for a variety of sgRNA series, we used Perturb-seq, an experimental strategy that enables matched capture of the transcriptome and the identity of an expressed sgRNA for each individual cell in pools of cells (27, 31-33) (FIG. 12A). […] In addition to the single-cell transcriptomes, we measured bulk growth phenotypes conferred by sgRNAs in these cells.
To measure the growth rate defects conferred by each sgRNA for comparison with the transcriptional phenotypes, samples of 500,000 transduced cells were taken from the same transduced cell population used in the Perturb-seq experiment on days two, seven, and twelve after transduction. Genomic DNA was extracted using the Nucleospin Blood kit (Macherey-Nagel) and sgRNA amplicons were prepared as described previously and above (19), albeit with no genomic DNA digestion or gel purification, and sequenced on HiSeq 4000 as described above for the other screens. Growth phenotypes were calculated by comparing normalized sgRNA abundances at day seven and twelve to those at day two, as described above. […] Relative sgRNA activities measured at day seven (five days of growth) were used to assign sgRNA activities in further analysis.

Substance	Perturb-seq pooled growth sgRNA counts, d5	Perturb-seq pooled growth sgRNA counts, d10	Perturb-seq pooled growth sgRNA counts, T0
ALDOA_+_30077139.23-P1P2_13: sgRNA targeting ALDOA, GGTCACCAGGACCCCTTTTG, SEQ ID NO: 160 (listed as DNA, chemistry not fully specified)	16944	26890	6699
ALDOA_+_30077139.23-P1P2_14: sgRNA targeting ALDOA, GGTCACCAGGACCGCTTCTG, SEQ ID NO: 159 (listed as DNA, chemistry not fully specified)	5347	6076	3603
ATP5E_−_57607036.23-P1P2_00: sgRNA targeting ATP5E, GGTGTCCAGGGGCACTCTGT, SEQ ID NO: 151 (listed as DNA, chemistry not fully specified)	12109	9475	8197
ATP5E_−_57607036.23-P1P2_01: sgRNA targeting ATP5E, GGTGTCCTGGGGCACTCTGT, SEQ ID NO: 152 (listed as DNA, chemistry not fully specified)	10487	8806	7774
ATP5E_−_57607036.23-P1P2_04: sgRNA targeting ATP5E, GGTGTCCAGGAGCACTCTGT, SEQ ID NO: 154 (listed as DNA, chemistry not fully specified)	13256	14860	7209
ATP5E_−_57607036.23-P1P2_14: sgRNA targeting ATP5E, GGTGTCCAGGGGCACTGTGT, SEQ ID NO: 155 (listed as DNA, chemistry not fully specified)	10750	15257	4611
ATP5E_−_57607036.23-P1P2_16: sgRNA targeting ATP5E, GGTGTCCAGGGGCGCTCTGT, SEQ ID NO: 153 (listed as DNA, chemistry not fully specified)	9571	9964	6210
BCR_+_23523092.23-P1P2_00: sgRNA targeting BCR, GCGCGCGGGGCCCGTCTCAG, SEQ ID NO: 125 (listed as DNA, chemistry not fully specified)	2250	2333	9644
BCR_+_23523092.23-P1P2_04: sgRNA targeting BCR, GCGCGCGGAGCCCGTCTCAG, SEQ ID NO: 127 (listed as DNA, chemistry not fully specified)	1660	2119	5355
BCR_+_23523092.23-P1P2_05: sgRNA targeting BCR, GCGCGCGGCGCCCGTCTCAG, SEQ ID NO: 128 (listed as DNA, chemistry not fully specified)	12165	15537	13439
BCR_+_23523092.23-P1P2_07: sgRNA targeting BCR, GCGCGCGGGGCTCGTCTCAG, SEQ ID NO: 126 (listed as DNA, chemistry not fully specified)	1744	2183	8081
BCR_+_23523092.23-P1P2_13: sgRNA targeting BCR, GCGCGCGGGGCCCATCTCAG, SEQ ID NO: 130 (listed as DNA, chemistry not fully specified)	5668	7063	4304
BCR_+_23523092.23-P1P2_15: sgRNA targeting BCR, GCGCGCGGGGCCCGTCGCAG, SEQ ID NO: 129 (listed as DNA, chemistry not fully specified)	6829	8085	5377
CAD_+_27440280.23-P1P2_00: sgRNA targeting CAD, GGCTGGAGAGAAGCCGGGCG, SEQ ID NO: 20 (listed as DNA, chemistry not fully specified)	2464	785	8671
CAD_+_27440280.23-P1P2_03: sgRNA targeting CAD, GGCTGGTGAGAAGCCGGGCG, SEQ ID NO: 102 (listed as DNA, chemistry not fully specified)	2087	907	7290
CAD_+_27440280.23-P1P2_06: sgRNA targeting CAD, GGCTGGAGAGTAGCCGGGCG, SEQ ID NO: 104 (listed as DNA, chemistry not fully specified)	4967	4365	6199
CAD_+_27440280.23-P1P2_07: sgRNA targeting CAD, GGCTGGAGCGAAGCCGGGCG, SEQ ID NO: 103 (listed as DNA, chemistry not fully specified)	6008	4019	13241
CAD_+_27440280.23-P1P2_13: sgRNA targeting CAD, GGCTGGAGAGAAGCCTGGCG, SEQ ID NO: 105 (listed as DNA, chemistry not fully specified)	17097	19130	11874
CDC23_−_137548987.23-P1P2_00: sgRNA targeting CDC23, GACAGCCACCGGGACCATGG, SEQ ID NO: 18 (listed as DNA, chemistry not fully specified)	757	854	8182
CDC23_−_137548987.23-P1P2_02: sgRNA targeting CDC23, GACAGCTACCGGGACCATGG, SEQ ID NO: 98 (listed as DNA, chemistry not fully specified)	832	1192	7014
CDC23_−_137548987.23-P1P2_04: sgRNA targeting CDC23, GACAGCCAACGGGACCATGG, SEQ ID NO: 100 (listed as DNA, chemistry not fully specified)	1646	1646	8019
CDC23_−_137548987.23-P1P2_08: sgRNA targeting CDC23, GACAGCCATCGGGACCATGG, SEQ ID NO: 99 (listed as DNA, chemistry not fully specified)	1531	1710	8986
CDC23_−_137548987.23-P1P2_11: sgRNA targeting CDC23, GACAGCCACCGGGACCACGG, SEQ ID NO: 101 (listed as DNA, chemistry not fully specified)	14320	16682	12707
COX11_+_53045977.23-P1P2_00: sgRNA targeting COX11, GGCTCTGGCGTCCTGGATGG, SEQ ID NO: 141 (listed as DNA, chemistry not fully specified)	11785	6198	8084
COX11_+_53045977.23-P1P2_03: sgRNA targeting COX11, GGCTCTGTCGTCCTGGATGG, SEQ ID NO: 142 (listed as DNA, chemistry not fully specified)	16852	9184	11251
